These results are taken from PMC3510080, “Identification of Compounds with Anti-Proliferative Activity against Trypanosoma brucei brucei Strain 427 by a Whole Cell Viability Based HTS Campaign” (PLoS Neglected Tropical Diseases, 2012).

Where “and” joins values, the source holds several entries; their conditions need not be identical. Equal values may be shown once. Read-outs that look alike come from different tables or passages of the source.

The test system of test [1] is T.b. brucei bloodstream form lister 427. Put plainly: T.b. brucei Alamar Blue viability estimation assay (384-well HTS, retest and rescreen). The following applies: for Primary Screening Activity 10.2µM (%): single point, inhibition relative to controls; for Estimated Selectivity Index: retest campaign. In kind it is cell-based, Trypanosoma brucei brucei. As to the method:
T.b. brucei lister 427 cells were maintained in log phase growth in 25 cm^2 tissue culture flasks (Corning, NY, USA) by sub-culturing at either 24 or 48 hour intervals. Cells were grown in HMI-9 medium, supplemented with 10% fetal calf serum (FCS) and 100 IU/ml penicillin/streptomycin (Invitrogen, Carlsbad, California, USA) with incubation at 5% CO2 at 37°C in humidified conditions. HEK293 cells were maintained in high glucose DMEM with L-glutamine, supplemented with 1× non-essential amino acids (NEAA; Invitrogen, USA) and 1 mM sodium pyruvate. Growth conditions were in 5% CO2 at 37°C, under humidified conditions.
All reagent and cell additions were made with a Multidrop liquid handler (Thermo Scientific, Newington, NH, USA) under sterile conditions. Fifty-five microliters of 2000 cells/mL of T.b. brucei in HMI-9 medium were added to a black, clear-bottomed 384-well lidded plate (BD Biosciences, Franklin Lanes, NJ, USA). Cells were incubated for 24 hours at 37°C in an atmosphere of 5% CO2 before addition of 5 µl of compounds/DMSO for control wells. Compounds suspended in 100% DMSO or 100% DMSO as controls were pre-diluted 1∶21 in high glucose DMEM without FCS by using a Minitrack robotic liquid handler (PerkinElmer, Waltham, MA, USA). Five microliters of diluted sample was added to the plate to give a final DMSO concentration of 0.417% in the assay. Cells were incubated for an additional 48 hours at 37°C. Ten microliters of 70% Alamar Blue (Biosource, Bethesda, MD, USA) was added to each well (diluted in HMI-9 medium supplemented with 10% FCS) to a final concentration of 10% in the assay. The plate was incubated for two hours under the same conditions, then incubated for 22 hours in the dark at room temperature. Wells were read at 535 nm (excitation) and 590 nm (emission) wavelengths on a Victor II Wallac plate reader (PerkinElmer, USA). Specific dilutions are explained further in the primary and retest assay methodology. Reference drugs used in the assay were pentamidine (Sigma-Aldrich, St Louis, MO, USA), diminazene aceturate (Sigma-Aldrich, USA) and puromycin (Calbiochem, San Deigo, CA, USA). Pentamidine is used to treat patients with HAT and diminazene is a veterinary drug used against T.b. brucei to combat infections in cattle.
Primary screening of the library, consisting of 87,296 compounds in two hundred and forty eight 384-well plates, was undertaken in single point against T.b. brucei. Stock solutions consisted of test compound at a concentration of 5 mM in 100% DMSO. One µl of each compound stock solution was diluted by the addition of 40 µl of dilution medium (high glucose DMEM without FCS) by a multidrop liquid handler (Thermo Scientific, USA). A 5 µl sample of this diluted solution was then added to the trypanosome assay plate. The final concentration of test compound in the assay was […] and that of DMSO was 0.42% v/v. Compounds were screened over a total of 11 days, at an average of 80 plates per day, taking into consideration that the assay incubation was 3 days total. Test compounds were added to plates in batches of 20 at two hour intervals, to maintain the timing of additions and reads.
Compound activity was calculated as the percentage inhibition in relation to positive and negative controls. […] These in-plate negative controls were used in an effort to normalise compound activity in relation to any plate to plate variation in the assay signal. A whole 384-well control plate was included in each day's screening, one per 20 compound plates containing half a plate of 2 µM pentamidine for the positive assay control, and half a plate of 0.42% v/v DMSO as a negative control. The positive assay control was used to calculate compound activity for batches of 20 compound plates. As well providing the positive control data, these whole plate controls were used for the calculation of the Z' to measure the reproducibility of the assay.

The test system of the next test is mammalian cell lines. The following applies: cited from earlier work.
The mark [2] stands for this setting: HEK293 IC50 / T.b. brucei IC50, > if less than 50% activity at 75.8 µM in HEK293.
Where [3] appears, read: Trypanosoma brucei, read-out: Compound activity T.B (IC50), re-synthesised/re-purchased compounds, three experiments, two replicates each.
Where [4] appears, read: re-synthesised/re-purchased compounds, three experiments, two replicates each, read-out: Compound activity T.B (IC50).
Where [5] appears, read: Trypanosoma brucei, Alamar Blue-based HTS assay format, run with time to kill study, read-out: Activity (IC50 value) AB assay.
Setting [6] is: Trypanosoma brucei, 13 control plates, triplicate dose-response, read-out: IC50 of reference compounds, primary screening campaign.
Where [7] appears, read: Trypanosoma brucei, reference compounds, read-out: IC50 against T.b. brucei, retest screening campaign.
The mark [8] stands for this setting: Trypanosoma brucei, re-synthesised/re-purchased compounds, three experiments, two replicates each, read-out: Compound activity T.B (IC50).
The mark [9] stands for this setting: Trypanosoma brucei, retest campaign from stock solutions, duplicate, read-out: Retest IC50 T.b.brucei.
Where [10] appears, read: Trypanosoma brucei, read-out: Activity (IC50 value) AB assay, Alamar Blue-based HTS assay format, run with time to kill study.

Consider `Cc1cc(O)nc(-n2nc(C)cc2NC(=O)C2CCCC2)n1` [Compound 4], for which, in test [1] (setting [2]), the “Selectivity Index T.B” value was 25 and 24.6. Further, the IC50 was 3.1 µM in test [1] (setting [3]) and 3.08 ± 0.29 µM in test [1] (setting [4]).

With `CCS(=O)(=O)N1CCCc2ccc(NS(=O)(=O)c3ccccc3F)cc21` [Compound 5], the “Selectivity Index T.B” value in test [1] (setting [2]) is given as >35.9. For the same compound, the results for the IC50 in test [1] (setting [3]) and in test [1] (setting [4]) were 2.1 µM and 2.11 ± 0.13 µM, respectively.

Take `O=C(Nc1ccc(Cl)c(-c2nc3ncccc3o2)c1)c1ccco1` [Compound 7]: the IC50 is 0.198 ± 0.00128 µM in test [1] (setting [5]); 0.22 µM in test [1] (setting [3]); 0.169 µM in test [1] (Trypanosoma brucei, read-out: Retest IC50 T.b.brucei, retest campaign from stock solutions, duplicate); 0.218 ± 0.00714 µM in test [1] (setting [4]). For the same compound, the “Primary Screening Activity 10.2µM (%)” value in test [1] is given as 100%.

`N=C(N)c1ccc(OCCCCCOc2ccc(C(=N)N)cc2)cc1` [Pentamidine, pentamidine, reference compound]: the “Selectivity Index T.B” value in test [1] is >283. In addition, the IC50 in test [1] (setting [6]) was 0.0147 ± 0.0047 µM; in test [1] (setting [5]), 0.00581 ± 0.000707 µM; in test [1] (Trypanosoma brucei, during rescreening of resynthesized compounds, read-out: Reference Compound Activity T.B (IC50)) it was 0.00352 ± 0.00036 µM; in test [1] (setting [7]) it was 0.0078 ± 0.0036 µM. Moreover, the “activity reported for some mammalian cell lines” value in the test on mammalian cell lines is reported as “low µM activity”.

As to `CCOc1ccc(OCc2ccc(C(=O)N3CCCC(C)C3)cc2)cc1` (stereo not shown) [Compound 3], in test [1] (setting [2]), the “Selectivity Index T.B” value is >67.1. In addition, the IC50 in test [1] (setting [8]) is 1.1 µM; in test [1] (setting [9]) it was 2.56 µM; in test [1] (setting [4]) it was 1.13 ± 0.347 µM. The “Estimated Selectivity Index” value in test [1] (HEK293 IC50 / T.b. brucei IC50) is on record as 16.3. Moreover, the “Primary Screening Activity 10.2µM (%)” value in test [1] is recorded as 99%.

For `CCC(C)NC(=O)c1nc(-c2ccccc2)cnc1N` (stereo not shown) [Compound 6], the “Selectivity Index T.B” value in test [1] (setting [2]) is >65.3. Besides, the IC50 in test [1] (setting [8]) is 1.2 µM; in test [1] (setting [10]), 0.16 ± 0.0403 µM; in test [1] (setting [4]), 1.16 ± 0.304 µM.

In the case of `O=C(NCCc1n[nH]c(-c2ccc(F)cc2)n1)c1cccc(F)c1` [Compound 2], the IC50 is 4 ± 0.0555 µM in test [1] (setting [8]), 4.71 ± 0.272 µM in test [1] (setting [10]) and 1.93 µM in test [1] (setting [9]). The “Estimated Selectivity Index” value in test [1] (HEK293 IC50 / T.b. brucei IC50) was 21.6. Besides, the “Primary Screening Activity 10.2µM (%)” value in test [1] was 99.5%.

Consider `COc1ccc(C[C@H](N)C(=O)N[C@H]2[C@@H](O)[C@H](n3cnc4c(N(C)C)ncnc43)O[C@@H]2CO)cc1` [Puromycin, puromycin, reference compound], for which, in test [1], the “Selectivity Index T.B” value is recorded as 8.90. For the same compound, the IC50 was 0.0619 ± 0.0068 µM in test [1] (13 control plates, triplicate dose-response, read-out: IC50 of reference compounds, primary screening campaign); 0.0619 ± 0.0068 µM in test [1] (setting [6]); 0.0641 ± 0.00024 µM in test [1] (setting [5]); 0.0584 ± 0.000769 µM in test [1] (Trypanosoma brucei, read-out: Reference Compound Activity T.B (IC50), during rescreening of resynthesized compounds); 0.139 ± 0.0157 µM in test [1] (setting [7]). The “Estimated Selectivity Index” value in test [1] (HEK293 IC50 / T.b. brucei IC50) is recorded as “less than 10”.

Consider `CCc1ccccc1N=C(NCCN1CCOCC1)NC(=O)c1ccccc1` [Compound 8], for which, in test [1] (setting [2]), the “Selectivity Index T.B” value was >29.0. In addition, the IC50 is 2.6 µM in test [1] (setting [8]) and 2.61 ± 0.32 µM in test [1] (setting [4]).

Take `CC(C)(C)C(=O)NCCc1csc(-c2cccc(F)c2)n1` [Compound 1]: the “Selectivity Index T.B” value in test [1] (setting [2]) was >96.0. Also, the IC50 in test [1] (setting [5]) is 1.1 ± 0.0651 µM; in test [1] (setting [8]), 0.79 µM; in test [1] (setting [9]) it was 0.441 µM; in test [1] (setting [4]), 0.785 ± 0.0829 µM. Further, the “Estimated Selectivity Index” value in test [1] (HEK293 IC50 / T.b. brucei IC50) was 94.6. Further, in test [1], the “Primary Screening Activity 10.2µM (%)” value is given as 100%.
